According to US5204311A, “Ethanediimidic acid bis[(arylalkylidene)hydrazide] color-formers” (Minnesota Mining and Manufacturing Company, priority 1991, dated 1993):
Entries after “also recorded” stand apart in the source; their conditions may differ.

Columns and labels:
[1] = Color (Hunter coordinates) of Ni complex, swabbed on Ni-coated receptor (CF) sheet; type: physicochemical; parameters: key to Hunter coordinate a / Hunter Coordinates a: Hunter a: +a red, -a green; key to Hunter coordinate b / Hunter Coordinates b: Hunter b: +b yellow, -b blue; conditions: for Chroma: C=(a^2 +b^2)^1/2; for Chroma / Hunter Coordinates L / Hunter Coordinates a / Hunter Coordinates b / Image Color: Ni(II) complex; for Chroma / Image Color: swab concn. 1% (Table 2); for Hunter Coordinates L / Hunter Coordinates a / Hunter Coordinates b: swab concn. 1%, 45°/0° reflectance, illuminant C (Table 2); for color of nickel / transition metal coordination compound (in words) / Chroma (in words): description
Description: In general, the colors of the complexes, as listed in Table 2 and Experiments 4, 6, and 7 below, were determined by preparing a 1% solution of the color-former or mixture of color-formers in an appropriate solvent. Unless otherwise indicated, the solvent was composed of a mixture of tributyl phosphate (26.5%), diethyl phthalate (17.6%), and cyclohexane (55.9%). The images were formed by applying two stripes of the solution to a substrate coated with a Ni^2+ coated receptor sheet using a cotton tipped applicator swab. Rapid and complete development of the image was achieved by passing the sheet through a hot shoe adjusted to 102° C., making a revolution every 10 seconds. The visually observed colors were measured and recorded.
One method of color measurement is to determine the color's position in color space. One color space system is the Hunter System; see F. W. Billmeyer, Jr., and M. Saltzman, Principles of Color Technology; John Wiley & Sons; New York, N.Y.; Ch. 2 & 3, 1981. In this system three mutually perpendicular axes (L, a, and b) are needed to define a color. "L" (+z axis) represents the lightness or darkness of the image; "a" (x axis) represents the amount of red or green (+a is red, -a is green); and "b" (y axis) represents the amount of yellow or blue (+b is yellow, -b is blue). By measuring a material's L, a, and b values, the color of one sample can be compared with that of other samples. Another value used in the Hunter System is Chroma (C). Chroma is defined by the equation [C=(a^2 +b^2)^1/2 ] and represents the distance of the image coordinates from the origin. The greater the Chroma, the more intense the image. Chroma is used to compare images cf the same hue. Because the color of a sample is also dependent upon the color temperature of the illuminating source, the angle at which the sample is illuminated, the angle at which the illumination is reflected, and the angle of the retina illuminated, these all need to be specified. Many instruments have been developed to record these values. One such instrument is the HunterLab LabScan II. This instrument is capable of automatically determining the L, a, and b values for a given sample, and was used for the following examples.
The L, a, and b color coordinates of the more uniform stripe were measured for 45°/0° reflectance on a HunterLab LabScan II, secondary observer, using illuminant C. The observed (image) color and the Hunter coordinates for Ni^2+ complexes of the yellow color-formers of this invention are given in Table 2.
A 1% solution of the condensation product in the encapsulation fill mix was swabbed onto a carbonless paper CF sheet (sold by the 3M Co. St. Paul, Minn.) with a cotton swab. The reflectance spectra had Hunter coordinates of: […]

[2] = Solubility in capsule fill solvents; type: physicochemical
Description: The encapsulation process requires the color-forming ligand be dissolved in a solvent or mixed solvents, because of the nature of the procedure. Formation of a microcapsule shell as by condensation of urea or melamine with an aldehyde such as formaldehyde or mixtures of aldehydes to form the capsule shell is carried out in an acidic aqueous medium and the color-former solution must be insoluble and unreactive to these reagents for the encapsulation to proceed. Solvents commonly used include tributyl phosphate, diethyl phthalate, and cyclohexane. […] As mentioned above, solubility of yellow color-formers exemplified by structure I in nonaqueous solvents such as those used in the encapsulation process may be increased by substituting alkyl, aryl, aralkyl, alkenyl, or such groups for the hydrogens on the various positions available in the structure I above.
This color observed on the CF sheet was yellow. […] Solubility in a solvent blend of tributyl phosphate, diethyl phthalate and cyclohexane (capsule solvents for preparing carbonless copy-paper) was >9% by weight. Thus the ligand is eminently suitable for encapsulation. The ligand is not volatile at 71 ° C. overnight.
Solubility in a solvent blend of tributyl phosphate, diethyl phthalate and cyclohexane (capsule solvents for preparing carbonless copy-paper) was 3% by weight. Thus the ligand is eminently suitable for encapsulation. The ligand is not volatile at 71 ° C. overnight.
*THE SOLUBILITY WAS DEEMED PREFERABLE IF IT WAS GREATER THAN 2% IN THE
FILL MIX AT ROOM TEMPERATURE FOR 3 DAYS. THE FILL MIX COMPRISED
TRIBUTYLPHOSPHATE (26.5%); DIETHYLPHTHALATE (17.6%); AND CYCLOHEXANE

SMILES	Chroma [1]	Hunter Coordinates L [1]	Hunter Coordinates a [1]	Hunter Coordinates b [1]	color of nickel / transition metal coordination compound (in words) [1]	Chroma (in words) ([1]; nickel complex)	Dye Solubility ([2]; 4320 min) [%]	Image Color [1]	Dye Solubility ([2]; fill mix tributylphosphate (26.5%), diethylphthalate (17.6%), cyclohexane (55.9%), room temperature, 3 days (Table 2)) [%]	measured reflectance density (in words) ([1]; nickel complex)
CC(C)(C)c1cc(C=NN=C(N)C(N)=NN=Cc2cc(C(C)(C)C)c(O)c(C(C)(C)C)c2)cc(C(C)(C)C)c1O [Compound 2, Ethanediimidic acid bis[(4-hydroxy-3,5-di-t-butylphenylmethylene)hydrazide]]	19.2	90.0	-8.0	17.6	much weaker	lower Chroma	> 2.0			
NC(=NN=Cc1cc(Br)ccc1O)C(N)=NN=Cc1cc(Br)ccc1O [Compound 3, Ethanediimidic acid bis[(2-hydroxy-5-bromophenylmethylene)hydrazide]]	41.1	81.9	-7.5	40.5			< 2.0	Yellow		
NC(=NN=Cc1cc([N+](=O)[O-])ccc1O)C(N)=NN=Cc1cc([N+](=O)[O-])ccc1O [Compound 4, Ethanediimidic acid bis[(2-hydroxy-5-nitrophenylmethylene)hydrazide]]	40.1	83.9	-9.7	38.9				Yellow	< 2.0	
CCN(CC)c1ccc(C=NN=C(N)C(N)=NN=Cc2ccc(N(CC)CC)cc2O)c(O)c1 [Compound 5, Ethanediimidic acid bis[(2-hydroxy-4-diethylaminophenylmethylene)hydrazide]]	41.4	80.9	-5.2	41.0			< 2.0	Yellow		
CC(=NN=C(N)C(N)=NN=C(C)c1ccccc1O)c1ccccc1O [Compound 6, Ethanediimidic acid bis[(2-hydroxyphenyl-methyl-methylene)hydrazide]]	20.1	48.3	-5.3	19.4	yellow		< 2.0	Yellow		
CCOC(=O)CC(C)=NN=C(N)C(N)=NN=C(C)CC(=O)OCC [Compound 7]	15.4	89.4	-5.8	14.3			> 2.0			
NC(=NN=C(c1ccccc1)c1ccc(O)cc1O)C(N)=NN=C(c1ccccc1)c1ccc(O)cc1O [Compound 8, Ethanediimidic acid bis[(2,4-dihydroxyphenyl-phenyl-methylene)hydrazide]]	18.0	88.0	-6.0	17.0			< 2.0			
COc1cccc(C=NN=C(N)C(N)=NN=Cc2cccc(OC)c2O)c1O [Compound 10, Ethanediimidic acid bis[(2-hydroxy-3-methoxyphenylmethylene)hydrazide]]	36.2	86.4	-11.1	34.5			< 2.0	Yellow		
CCOc1cccc(C=NN=C(N)C(N)=NN=Cc2cccc(OCC)c2O)c1O [Compound 11, Ethanediimidic acid bis[(2-hydroxy-3-ethoxyphenylmethylene)hydrazide]]	39.3	88.4	-15.2	36.2			< 2.0	Yellow		
NC(=NN=Cc1ccco1)C(N)=NN=Cc1ccco1 [Compound 12, Ethanediimidic acid bis[(furylmethylene)hydrazide]]	25.8	89.4	-10.6	23.5		intermediate between that of aliphatic and the preferred o-substituted ligands	< 2.0	Yellow		
NC(=NN=Cc1cccs1)C(N)=NN=Cc1cccs1 [Compound 13, Ethanediimidic acid bis[(2-thienylmethylene)hydrazide]]		72.6	11.2	13.9		intermediate between that of aliphatic and the preferred o-substituted ligands	< 2.0	Brown		
NC(=NN=Cc1ccccn1)C(N)=NN=Cc1ccccn1 [Compound 14, Ethanediimidic acid bis[(2-pyridylmethylene)hydrazide]]	35.0	86.5	-11.0	33.2		intermediate between that of aliphatic and the preferred o-substituted ligands	< 2.0	Yellow		
CCCCCCC=NN=C(N)C(N)=NN=CCCCCCC [Compound 15]	11.6	89.9	-4.2	10.8	very weakly yellow; also recorded: weak yellow	low and low Chroma value	> 2.0			low
NC(=NN=Cc1c(O)ccc2ccccc12)C(N)=NN=Cc1c(O)ccc2ccccc12 [Compound 17, Ethanediimidic acid bis[(2-hydroxy-1-naphthylmethylene)hydrazide]]	28.5	86.6	-6.5	27.8			< 2.0	Yellow		
